Positions of bridges follow the written chain, without caps; N, C: chain ends. Non-standard residues stand in square brackets, D forms with d. Residues, ends and D or L forms follow the SMILES beside them. ξ: configuration not given here. hPhe = N[C@@H](CCc1ccccc1)C(=O)O; R8 = C=CCCCCCC[C@@](C)(N)C(=O)O; Cit = NC(=O)NCCC[C@H](N)C(=O)O; ξαMeD = CC(N)(CC(=O)O)C(=O)O; S5 = C=CCCC[C@](C)(N)C(=O)O; Aib = CC(C)(N)C(=O)O
How the values were obtained:
Bcl-xL = Bcl-xL (Homo sapiens, UniProt Q07817); assay: Ki determination for Bcl-xL (BCL-2 family binding spectrum); conditions: read-out: Ki BCL-XL
Sequence of Bcl-xL (Q07817 whole entry, species assumed): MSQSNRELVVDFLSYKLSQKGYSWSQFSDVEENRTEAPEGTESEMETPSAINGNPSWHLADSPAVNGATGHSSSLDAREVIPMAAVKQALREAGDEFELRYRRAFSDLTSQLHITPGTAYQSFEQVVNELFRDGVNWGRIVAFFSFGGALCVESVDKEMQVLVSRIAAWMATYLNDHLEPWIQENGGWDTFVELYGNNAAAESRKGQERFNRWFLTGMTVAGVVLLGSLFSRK
Procedure, shortened: (§1)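 Competitive fluorescence polarization: compounds (1 nM–1 mM) with 25 nM fluoresceinated peptidomimetic macrocycle and 50 nM protein in 140 mM NaCl, 50 mM Tris-HCl pH 7.4, 30 min at room temperature. Constants from nonlinear regression.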

Bcl-2 = Bcl-2 (Homo sapiens, UniProt P10415); assay: Ki determination for Bcl-2 (BCL-2 family binding spectrum); conditions: read-out: Ki BCL-2
Sequence of Bcl-2 (P10415 whole entry, species assumed): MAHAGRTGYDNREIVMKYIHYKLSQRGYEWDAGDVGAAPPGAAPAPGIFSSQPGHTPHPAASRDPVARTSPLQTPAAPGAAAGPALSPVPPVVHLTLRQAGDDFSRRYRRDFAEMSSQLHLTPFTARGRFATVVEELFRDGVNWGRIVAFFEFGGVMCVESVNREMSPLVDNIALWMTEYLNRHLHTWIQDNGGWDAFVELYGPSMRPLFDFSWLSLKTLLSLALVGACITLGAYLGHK
Procedure, shortened: as §1

Mcl-1 = Mcl-1 (Homo sapiens, UniProt Q07820); assay: Ki determination for Mcl-1 (BCL-2 family binding spectrum); conditions: read-out: Ki MCL-1
Sequence of Mcl-1 (Q07820 whole entry, species assumed): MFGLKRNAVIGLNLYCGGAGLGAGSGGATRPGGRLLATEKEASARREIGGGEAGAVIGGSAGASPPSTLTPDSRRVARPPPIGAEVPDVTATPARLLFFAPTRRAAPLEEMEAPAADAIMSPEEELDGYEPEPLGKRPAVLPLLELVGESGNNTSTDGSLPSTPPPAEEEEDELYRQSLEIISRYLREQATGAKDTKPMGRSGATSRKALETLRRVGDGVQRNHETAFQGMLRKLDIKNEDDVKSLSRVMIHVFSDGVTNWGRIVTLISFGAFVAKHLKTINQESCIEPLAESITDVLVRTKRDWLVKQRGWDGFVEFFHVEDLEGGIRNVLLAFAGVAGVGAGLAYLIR
Procedure, shortened: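 Binding to Mcl-1 was measured as displacement of a fluorescein-labelled macrocyclic peptidomimetic, read by fluorescence polarization. Constants were fitted by nonlinear regression.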

SMILES	Ki (Bcl-xL)	Ki (Bcl-2)	Ki (Mcl-1)
CC[C@H](C)[C@H](NC(C)=O)C(=O)N[C@@H](Cc1c[nH]c2ccccc12)C(=O)N[C@H](C(=O)NC(C)(C)C(=O)N[C@@H](CCC(N)=O)C(=O)N[C@@H](C)C(=O)N[C@@H](CC(C)C)C(=O)N[C@@H](CCCNC(=N)N)C(=O)N[C@]1(C)CCCCCCC=CCCC[C@@](C)(C(=O)N[C@@H](Cc2ccc(O)cc2)C(=O)N[C@@H](Cc2ccc(O)cc2)C(=O)N[C@@H](C)C(N)=O)NC(=O)[C@H](CC(N)=O)NC(=O)[C@H](Cc2ccccc2)NC(=O)[C@H](C)NC(=O)C(C)(CC(=O)O)NC(=O)CNC(=O)[C@H]([C@@H](C)CC)NC1=O)[C@@H](C)CC (stereo partly drawn) [compound 1707] (Ac-IWI[Aib]QALR[R8]IG[ξαMeD]AFN[S5]YYA-NH2; staple 9-16)	> 1000 nM	> 1000 nM	> 1000 nM
CC[C@H](C)[C@H](NC(C)=O)C(=O)N[C@@H](Cc1c[nH]c2ccccc12)C(=O)N[C@H](C(=O)N[C@@H](C)C(=O)N[C@@H](CCC(N)=O)C(=O)N[C@@H](C)C(=O)N[C@@H](CC(C)C)C(=O)N[C@@H](CCCNC(=N)N)C(=O)N[C@]1(C)CCCCCCC=CCCC[C@@](C)(C(=O)N[C@@H](Cc2ccc(O)cc2)C(=O)N[C@@H](Cc2c[nH]c3ccccc23)C(=O)N[C@@H](C)C(N)=O)NC(=O)[C@H](CC(N)=O)NC(=O)[C@H](Cc2ccccc2)NC(=O)[C@H](C)NC(=O)[C@H](CC(=O)O)NC(=O)CNC(=O)[C@H]([C@@H](C)CC)NC1=O)[C@@H](C)CC [compound 1758] (Ac-IWIAQALR[R8]IGDAFN[S5]YWA-NH2; staple 9-16)	15.4 nM	23.5 nM	3.9 nM
CC[C@H](C)[C@H](NC(C)=O)C(=O)N[C@@H](Cc1c[nH]c2ccccc12)C(=O)N[C@H](C(=O)N[C@@H](C)C(=O)N[C@@H](CCC(N)=O)C(=O)N[C@@H](C)C(=O)N[C@@H](CCc1ccccc1)C(=O)N[C@@H](CCCNC(=N)N)C(=O)N[C@]1(C)CCCCCCC=CCCC[C@@](C)(C(=O)N[C@@H](Cc2ccc(O)cc2)C(=O)N[C@@H](Cc2ccc(O)cc2)C(=O)N[C@@H](C)C(N)=O)NC(=O)[C@H](CC(N)=O)NC(=O)[C@H](Cc2ccccc2)NC(=O)[C@H](C)NC(=O)[C@H](CC(=O)O)NC(=O)CNC(=O)[C@H]([C@@H](C)CC)NC1=O)[C@@H](C)CC [compound 1692] (Ac-IWIAQA[hPhe]R[R8]IGDAFN[S5]YYA-NH2; staple 9-16)	> 1000 nM	> 1000 nM	7.5 nM
CC[C@H](C)[C@H](NC(C)=O)C(=O)N[C@@H](Cc1c[nH]c2ccccc12)C(=O)N[C@H](C(=O)N[C@@H](C)C(=O)N[C@@H](CCC(N)=O)C(=O)N[C@@H](C)C(=O)N[C@@H](CC(C)C)C(=O)N[C@@H](C)C(=O)N[C@]1(C)CCCCCCC=CCCC[C@@](C)(C(=O)N[C@@H](Cc2ccc(O)cc2)C(=O)N[C@@H](Cc2ccc(O)cc2)C(=O)N[C@@H](C)C(N)=O)NC(=O)[C@H](CC(N)=O)NC(=O)[C@H](Cc2ccccc2)NC(=O)[C@H](C)NC(=O)[C@H](CC(=O)O)NC(=O)CNC(=O)[C@H]([C@@H](C)CC)NC1=O)[C@@H](C)CC [compound 1673] (Ac-IWIAQALA[R8]IGDAFN[S5]YYA-NH2; staple 9-16)	386 nM	> 1000 nM	73.8 nM
CC[C@H](C)[C@H](NC(C)=O)C(=O)N[C@@H](Cc1c[nH]c2ccccc12)C(=O)N[C@H](C(=O)N[C@@H](C)C(=O)N[C@@H](CCC(N)=O)C(=O)N[C@@H](C)C(=O)N[C@@H](CC(C)C)C(=O)N[C@@H](Cc1c[nH]cn1)C(=O)N[C@]1(C)CCCCCCC=CCCC[C@@](C)(C(=O)N[C@@H](Cc2ccc(O)cc2)C(=O)N[C@@H](Cc2ccc(O)cc2)C(=O)N[C@@H](C)C(N)=O)NC(=O)[C@H](CC(N)=O)NC(=O)[C@H](Cc2ccccc2)NC(=O)[C@H](CCC(N)=O)NC(=O)[C@H](CC(=O)O)NC(=O)CNC(=O)[C@H]([C@@H](C)CC)NC1=O)[C@@H](C)CC [compound 1658] (Ac-IWIAQALH[R8]IGDQFN[S5]YYA-NH2; staple 9-16)	> 1000 nM	> 1000 nM	> 1000 nM
CC[C@H](C)[C@H](NC(C)=O)C(=O)N[C@@H](Cc1c[nH]c2ccccc12)C(=O)N[C@H](C(=O)N[C@@H](C)C(=O)N[C@@H](CCC(N)=O)C(=O)N[C@@H](C)C(=O)N[C@@H](CC(C)C)C(=O)N[C@@H](CCCNC(N)=O)C(=O)N[C@]1(C)CCCCCCC=CCCC[C@@](C)(C(=O)N[C@@H](Cc2ccc(O)cc2)C(=O)N[C@@H](Cc2ccc(O)cc2)C(=O)N[C@@H](C)C(N)=O)NC(=O)[C@H](CC(N)=O)NC(=O)[C@H](Cc2ccccc2)NC(=O)[C@H](C)NC(=O)[C@H](CC(N)=O)NC(=O)CNC(=O)[C@H]([C@@H](C)CC)NC1=O)[C@@H](C)CC [compound 1772]	> 1000 nM	> 1000 nM	> 1000 nM

Other lines, results leading:

Ki (Bcl-xL)	Ki (Bcl-2)	Ki (Mcl-1)	SMILES
> 1000 nM	> 1000 nM	> 1000 nM	CC[C@H](C)[C@H](NC(C)=O)C(=O)N[C@@H](Cc1c[nH]c2ccccc12)C(=O)N[C@H](C(=O)N[C@@H](C)C(=O)N[C@@H](CCC(N)=O)C(=O)N[C@@H](C)C(=O)N[C@@H](C)C(=O)N[C@@H](CCCNC(=N)N)C(=O)N[C@]1(C)CCCCCCC=CCCC[C@@](C)(C(=O)N[C@@H](Cc2ccc(O)cc2)C(=O)N[C@@H](Cc2ccc(O)cc2)C(=O)N[C@@H](C)C(N)=O)NC(=O)[C@H](CC(N)=O)NC(=O)[C@H](Cc2ccccc2)NC(=O)[C@H](C)NC(=O)[C@H](CC(=O)O)NC(=O)CNC(=O)[C@H]([C@@H](C)CC)NC1=O)[C@@H](C)CC [compound 1675] (Ac-IWIAQAAR[R8]IGDAFN[S5]YYA-NH2; staple 9-16)
7.7 nM	25.6 nM	116 nM	CC[C@H](C)[C@H](NC(C)=O)C(=O)N[C@@H](Cc1c[nH]c2ccccc12)C(=O)N[C@H](C(=O)N[C@@H](C)C(=O)N[C@@H](CCC(N)=O)C(=O)N[C@@H](C)C(=O)N[C@@H](CC(C)C)C(=O)N[C@@H](CCCNC(=N)N)C(=O)N[C@]1(C)CCCCCCC=CCCC[C@@](C)(C(=O)N[C@@H](Cc2ccc(O)cc2)C(=O)N[C@@H](Cc2ccc(O)cc2)C(=O)N[C@@H](C)C(N)=O)NC(=O)[C@H](CC(N)=O)NC(=O)[C@H](Cc2ccccc2)NC(=O)[C@H](CCC(N)=O)NC(=O)[C@H](CC(=O)O)NC(=O)[C@H](C)NC(=O)[C@H]([C@@H](C)CC)NC1=O)[C@@H](C)CC [compound 1666] (Ac-IWIAQALR[R8]IADQFN[S5]YYA-NH2; staple 9-16)
28.8 nM	88.2 nM	1.7 nM	CC[C@H](C)[C@H](NC(C)=O)C(=O)N[C@@H](Cc1c[nH]c2ccccc12)C(=O)N[C@H](C(=O)N[C@@H](C)C(=O)N[C@@H](CCC(N)=O)C(=O)N[C@@H](C)C(=O)N[C@@H](CC(C)C)C(=O)N[C@@H](CCCNC(N)=O)C(=O)N[C@]1(C)CCCCCCC=CCCC[C@@](C)(C(=O)N[C@@H](Cc2ccc(O)cc2)C(=O)N[C@@H](Cc2ccc(O)cc2)C(=O)N[C@@H](C)C(N)=O)NC(=O)[C@H](CC(N)=O)NC(=O)[C@H](Cc2ccccc2)NC(=O)[C@H](CCC(N)=O)NC(=O)[C@H](CC(=O)O)NC(=O)CNC(=O)[C@H]([C@@H](C)CC)NC1=O)[C@@H](C)CC [compound 1656] (Ac-IWIAQAL[Cit][R8]IGDQFN[S5]YYA-NH2; staple 9-16)
1.9 nM	4.8 nM	122 nM	CC[C@H](C)[C@H](NC(C)=O)C(=O)N[C@@H](Cc1c[nH]c2ccccc12)C(=O)N[C@H](C(=O)N[C@@H](C)C(=O)N[C@@H](CCC(N)=O)C(=O)N[C@@H](C)C(=O)N[C@@H](CC(C)C)C(=O)N[C@@H](CCCNC(=N)N)C(=O)N[C@]1(C)CCCCCCC=CCCC[C@@](C)(C(=O)N[C@@H](Cc2ccc(O)cc2)C(=O)N[C@@H](Cc2ccc(O)cc2)C(=O)N[C@@H](C)C(N)=O)NC(=O)[C@H](CC(N)=O)NC(=O)[C@H](Cc2ccccc2)NC(=O)[C@H](CCC(N)=O)NC(=O)[C@H](CC(=O)O)NC(=O)CNC(=O)[C@H](C)NC1=O)[C@@H](C)CC [compound 1668] (Ac-IWIAQALR[R8]AGDQFN[S5]YYA-NH2; staple 9-16)
416 nM	405 nM	195 nM	CC[C@H](C)[C@H](NC(C)=O)C(=O)N[C@@H](Cc1c[nH]c2ccccc12)C(=O)N[C@H](C(=O)N[C@@H](C)C(=O)N[C@@H](CCC(N)=O)C(=O)N[C@@H](C)C(=O)N[C@@H](CC(C)C)C(=O)N[C@@H](CCCNC(=N)N)C(=O)N[C@]1(C)CCCCCCC=CCCC[C@@](C)(C(=O)N[C@@H](Cc2ccc(O)cc2)C(=O)N[C@@H](Cc2ccc(O)cc2)C(=O)N[C@@H](C)C(N)=O)NC(=O)[C@H](CC(N)=O)NC(=O)[C@H](Cc2ccccc2)NC(=O)[C@H](C)NC(=O)[C@H](CC(N)=O)NC(=O)CNC(=O)[C@H]([C@@H](C)CC)NC1=O)[C@@H](C)CC [compound 1674] (Ac-IWIAQALR[R8]IGNAFN[S5]YYA-NH2; staple 9-16)
1 nM	6 nM	1 nM	CC[C@H](C)[C@H](NC(C)=O)C(=O)N[C@@H](Cc1c[nH]c2ccccc12)C(=O)N[C@H](C(=O)N[C@@H](C)C(=O)N[C@@H](C)C(=O)N[C@@H](C)C(=O)N[C@@H](CC(C)C)C(=O)N[C@@H](CCCNC(=N)N)C(=O)N[C@]1(C)CCCCCCC=CCCC[C@@](C)(C(=O)N[C@@H](Cc2ccc(O)cc2)C(=O)N[C@@H](Cc2ccc(O)cc2)C(=O)N[C@@H](C)C(N)=O)NC(=O)[C@H](CC(N)=O)NC(=O)[C@H](Cc2ccccc2)NC(=O)[C@H](CCC(=O)O)NC(=O)[C@H](CC(=O)O)NC(=O)CNC(=O)[C@H]([C@@H](C)CC)NC1=O)[C@@H](C)CC [compound 1651] (Ac-IWIAAALR[R8]IGDEFN[S5]YYA-NH2; staple 9-16)
